Results published in PubChem BioAssay (NCI).
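The compound was tested at five concentrations on cells cultured in 96-well plates, with a 48-hour exposure period. TGI denotes the concentration required for complete inhibition of growth.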

Experiments:
Test in all cases: growth of human tumour cells (NCI), 48 h
SK-MEL-28 melanoma = test system: SK-MEL-28 melanoma
XF 498 CNS = test system: XF 498 CNS
CCRF-CEM leukemia = test system: CCRF-CEM leukemia
ACHN renal = test system: ACHN renal
DMS 273 small cell lung = test system: DMS 273 small cell lung
SF-268 CNS = test system: SF-268 CNS
SF-295 CNS = test system: SF-295 CNS
SNB-75 CNS = test system: SNB-75 CNS
NCI-H23 lung = test system: NCI-H23 lung
UO-31 renal = test system: UO-31 renal
NCI-H522 lung = test system: NCI-H522 lung
OVCAR-5 ovarian = test system: OVCAR-5 ovarian
NCI-H460 lung = test system: NCI-H460 lung
UACC-62 melanoma = test system: UACC-62 melanoma
UACC-257 melanoma = test system: UACC-257 melanoma
SN12C renal = test system: SN12C renal
DLD-1 colon = test system: DLD-1 colon
CAKI-1 renal = test system: CAKI-1 renal
U251 CNS = test system: U251 CNS
SK-MEL-2 melanoma = test system: SK-MEL-2 melanoma
OVCAR-4 ovarian = test system: OVCAR-4 ovarian
RXF 393 renal = test system: RXF 393 renal
MALME-3M melanoma = test system: MALME-3M melanoma
KM20L2 colon = test system: KM20L2 colon
SF-539 CNS = test system: SF-539 CNS
M19-MEL melanoma = test system: M19-MEL melanoma
TK-10 renal = test system: TK-10 renal
SK-MEL-5 melanoma = test system: SK-MEL-5 melanoma
SNB-78 CNS = test system: SNB-78 CNS
SW-620 colon = test system: SW-620 colon
HCC-2998 colon = test system: HCC-2998 colon
EKVX NSCLC = test system: EKVX NSCLC
M14 melanoma = test system: M14 melanoma
LOX IMVI melanoma = test system: LOX IMVI melanoma
HOP-92 NSCLC = test system: HOP-92 NSCLC
LXFL 529 NSCLC = test system: LXFL 529 NSCLC
A498 renal = test system: A498 renal
RXF-631 renal = test system: RXF-631 renal
SK-OV-3 ovarian = test system: SK-OV-3 ovarian
IGROV1 ovarian = test system: IGROV1 ovarian
HL-60(TB) leukemia = test system: HL-60(TB) leukemia
NCI-H226 lung = test system: NCI-H226 lung
MOLT-4 leukemia = test system: MOLT-4 leukemia
SR leukemia = test system: SR leukemia
HCT-116 colon = test system: HCT-116 colon
DMS 114 small cell lung = test system: DMS 114 small cell lung
A549 NSCLC = test system: A549 NSCLC
KM12 colon = test system: KM12 colon
HOP-62 NSCLC = test system: HOP-62 NSCLC
SNB-19 CNS = test system: SNB-19 CNS
K-562 leukemia = test system: K-562 leukemia
COLO 205 colon = test system: COLO 205 colon
RPMI-8226 leukemia = test system: RPMI-8226 leukemia
HT29 colon = test system: HT29 colon
OVCAR-3 ovarian = test system: OVCAR-3 ovarian
786-0 renal = test system: 786-0 renal
HCT-15 colon = test system: HCT-15 colon
OVCAR-8 ovarian = test system: OVCAR-8 ovarian
HOP-18 NSCLC = test system: HOP-18 NSCLC

Compound: O=[N+]([O-])c1nc(-c2ccccn2)[nH]c1[N+](=O)[O-]
- TGI (SK-MEL-28 melanoma): > 100 µM
- TGI (XF 498 CNS): > 100 µM
- TGI (CCRF-CEM leukemia): > 100 µM
- TGI (ACHN renal): > 100 µM
- TGI (DMS 273 small cell lung): > 100 µM
- TGI (SF-268 CNS): > 100 µM
- TGI (SF-295 CNS): > 100 µM
- TGI (SNB-75 CNS): > 100 µM
- TGI (NCI-H23 lung): > 100 µM
- TGI (UO-31 renal): > 100 µM
- TGI (NCI-H522 lung): 37.1 µM
- TGI (OVCAR-5 ovarian): > 100 µM
- TGI (NCI-H460 lung): > 100 µM
- TGI (UACC-62 melanoma): 85.7 µM
- TGI (UACC-257 melanoma): > 100 µM
- TGI (SN12C renal): > 100 µM
- TGI (DLD-1 colon): > 100 µM
- TGI (CAKI-1 renal): > 100 µM
- TGI (U251 CNS): > 100 µM
- TGI (SK-MEL-2 melanoma): > 100 µM
- TGI (OVCAR-4 ovarian): > 100 µM
- TGI (RXF 393 renal): > 100 µM
- TGI (MALME-3M melanoma): > 100 µM
- TGI (KM20L2 colon): > 100 µM
- TGI (SF-539 CNS): > 100 µM
- TGI (M19-MEL melanoma): > 100 µM
- TGI (TK-10 renal): > 100 µM
- TGI (SK-MEL-5 melanoma): > 100 µM
- TGI (SNB-78 CNS): > 100 µM
- TGI (SW-620 colon): > 100 µM
- TGI (HCC-2998 colon): > 100 µM
- TGI (EKVX NSCLC): > 100 µM
- TGI (M14 melanoma): > 100 µM
- TGI (LOX IMVI melanoma): > 100 µM
- TGI (HOP-92 NSCLC): > 100 µM
- TGI (LXFL 529 NSCLC): > 100 µM
- TGI (A498 renal): > 100 µM
- TGI (RXF-631 renal): > 100 µM
- TGI (SK-OV-3 ovarian): > 100 µM
- TGI (IGROV1 ovarian): > 100 µM
- TGI (HL-60(TB) leukemia): > 100 µM
- TGI (NCI-H226 lung): > 100 µM
- TGI (MOLT-4 leukemia): > 100 µM
- TGI (SR leukemia): > 100 µM
- TGI (HCT-116 colon): 49 µM
- TGI (DMS 114 small cell lung): 38.9 µM
- TGI (A549 NSCLC): > 100 µM
- TGI (KM12 colon): > 100 µM
- TGI (HOP-62 NSCLC): > 100 µM
- TGI (SNB-19 CNS): > 100 µM
- TGI (K-562 leukemia): > 100 µM
- TGI (COLO 205 colon): > 100 µM
- TGI (RPMI-8226 leukemia): > 100 µM
- TGI (HT29 colon): > 100 µM
- TGI (OVCAR-3 ovarian): > 100 µM

Compound: CC1(C)CCC[C@@]2(C)C1CCC1(C)C(CCc3ccoc3)/C(=C/OS(=O)(=O)O)CCC12 (stereo partly drawn) (tested in a mixture with another compound)
- TGI (SK-MEL-28 melanoma): > 100 µM
- TGI (XF 498 CNS): > 100 µM
- TGI (CCRF-CEM leukemia): > 100 µM
- TGI (ACHN renal): > 100 µM
- TGI (DMS 273 small cell lung): > 100 µM
- TGI (SF-268 CNS): > 100 µM
- TGI (SF-295 CNS): > 100 µM
- TGI (SNB-75 CNS): > 100 µM
- TGI (NCI-H23 lung): > 100 µM
- TGI (UO-31 renal): > 100 µM
- TGI (OVCAR-5 ovarian): > 100 µM
- TGI (NCI-H460 lung): > 100 µM
- TGI (UACC-62 melanoma): > 100 µM
- TGI (UACC-257 melanoma): > 100 µM
- TGI (SN12C renal): > 100 µM
- TGI (DLD-1 colon): > 100 µM
- TGI (CAKI-1 renal): > 100 µM
- TGI (U251 CNS): > 100 µM
- TGI (786-0 renal): > 100 µM
- TGI (SK-MEL-2 melanoma): > 100 µM
- TGI (OVCAR-4 ovarian): > 100 µM
- TGI (RXF 393 renal): > 100 µM
- TGI (HCT-15 colon): > 100 µM
- TGI (MALME-3M melanoma): > 100 µM
- TGI (KM20L2 colon): > 100 µM
- TGI (SF-539 CNS): > 100 µM
- TGI (M19-MEL melanoma): > 100 µM
- TGI (TK-10 renal): > 100 µM
- TGI (SK-MEL-5 melanoma): > 100 µM
- TGI (SNB-78 CNS): > 100 µM
- TGI (SW-620 colon): > 100 µM
- TGI (HCC-2998 colon): > 100 µM
- TGI (OVCAR-8 ovarian): > 100 µM
- TGI (EKVX NSCLC): > 100 µM
- TGI (M14 melanoma): > 100 µM
- TGI (LOX IMVI melanoma): > 100 µM
- TGI (HOP-92 NSCLC): 63.2 µM
- TGI (LXFL 529 NSCLC): > 100 µM
- TGI (A498 renal): > 100 µM
- TGI (RXF-631 renal): > 100 µM
- TGI (SK-OV-3 ovarian): > 100 µM
- TGI (IGROV1 ovarian): > 100 µM
- TGI (HL-60(TB) leukemia): > 100 µM
- TGI (NCI-H226 lung): > 100 µM
- TGI (MOLT-4 leukemia): 79.7 µM
- TGI (SR leukemia): > 100 µM
- TGI (HCT-116 colon): 38.9 µM
- TGI (DMS 114 small cell lung): > 100 µM
- TGI (A549 NSCLC): > 100 µM
- TGI (KM12 colon): > 100 µM
- TGI (HOP-62 NSCLC): > 100 µM
- TGI (SNB-19 CNS): > 100 µM
- TGI (K-562 leukemia): > 100 µM
- TGI (COLO 205 colon): > 100 µM
- TGI (HOP-18 NSCLC): > 100 µM
- TGI (RPMI-8226 leukemia): > 100 µM
- TGI (HT29 colon): > 100 µM
- TGI (OVCAR-3 ovarian): > 100 µM
